Test results from US9884854B2, “N-[(pyrimidinylamino)propanyl]-and N[(pyrazinylamino)proppanyl]arylcarboxamides” (Boehringer Ingelheim International GmbH, priority 2016, dated 2018).

test system: human MDR1 P-gp; experiment: Assay D: efflux in MDCK cells transfected with the human MDR1 gene; assay type: in vitro ADME, canine; settings: dog; MDCK-MDR1 monolayers, pH 7.4, 37° C.; read-out: MDCK efflux ratio (BA/AB)
Experimental: The MDCK assay provides information on the potential of a compound to pass the blood brain barrier. Permeability measurements across polarized, confluent MDCK-MDR1 cell monolayers grown on permeable filter supports are used as an in vitro absorption model: apparent permeability coefficients (PE) of the compounds across the MDCK-MDR1 cell monolayers are measured (pH 7.4, 37° C.) in apical-to-basal (AB) and basal-to-apical (BA) transport direction. The AB permeability (PEAB) represents drug absorption from the blood into the brain and the BA permeability (PEBA) drug efflux from the brain back into the blood via both, passive permeability as well as active transport mechanisms mediated by efflux and uptake transporters that are expressed on the MDCK-MDR1 cells, predominantly by the overexpressed human MDR1 P-gp. Identical or similar permeabilities in both transport directions indicate passive permeation, vectorial permeability points to additional active transport mechanisms. Higher PEBA than PEAB (PEBA/PEAB>5) indicates the involvement of active efflux mediated by MDR1 P-gp, which might compromises the goal to achieve sufficient brain exposure. Therefore this assay provides valuable support for selection of compounds applicable for further in vivo testing. High permeability not limited by efflux at the blood brain barrier is a favourable characteristic for compounds that are to be used for drugs acting primarily in the CNS
D. Assessment of Efflux in Madin-Darby Canine Kidney (MDCK) Cells Transfected with the Human MDR1 Gene
Apparent permeability coefficients (PE) of the compounds across the MDCK-MDR1 cell monolayers are measured (pH 7.4, 37° C.) in apical-to-basal (AB) and basal-to-apical (BA) transport direction. AB permeability (PEAB) represents drug absorption from the blood into the brain and BA permeability (PEBA) drug efflux from the brain back into the blood via both passive permeability as well as active transport mechanisms mediated by efflux and uptake transporters that are expressed on the MDCK-MDR1 cells, predominantly by the overexpressed human MDR1 P-gp. The compounds are assigned to permeability/absorption classes by comparison of the AB permeabilities with the AB permeabilities of reference compounds with known in vitro permeability and oral absorption in the human. Identical or similar permeabilities in both transport directions indicate passive permeation, vectorial permeability points to additional active transport mechanisms. Higher PEBA than PEAB indicates the involvement of active efflux mediated by MDR1 P-gp. Active transport is concentration-dependently saturable.
MDCK-MDR1 cells (1-2×10e5 cells/1 cm2 area) are seeded on filter inserts (Costar transwell polycarbonate or PET filters, 0.4 μm pore size) and cultured (DMEM) for 7 days. Subsequently, the MDR1 expression is boosted by culturing the cells with 5 mM sodium butyrate in full medium for 2 days. Compounds are dissolved in appropriate solvent (like DMSO, 1-20 mM stock solutions). Stock solutions are diluted with HTP-4 buffer (128.13 mM NaCl, 5.36 mM KCl, 1 mM MgSO4, 1.8 mM CaCl2, 4.17 mM NaHCO3, 1.19 mM Na2HPO4×7H2O, 0.41 mM NaH2PO4×H2O, 15 mM HEPES, 20 mM glucose, 0.25% BSA, pH 7.4) to prepare the transport solutions (0.1-300 μM compound, final DMSO<=0.5%). The transport solution (TL) is applied to the apical or basolateral donor side for measuring A-B or B-A permeability (3 filter replicates), respectively. The receiver side contains the same buffer as the donor side. Samples are collected at the start and end of experiment from the donor and at various time intervals for up to 2 hours also from the receiver side for concentration measurement by HPLC-MS/MS or scintillation counting. Sampled receiver volumes are replaced with fresh receiver solution.

efflux ratio	Structure (SMILES)
< 3	CCN(C(=O)c1nccnc1-c1ccccc1)[C@@H](C)CNc1ncc(C(F)(F)F)cn1 [Example 21]
3 to 5	CCN(C(=O)c1ccc(F)cc1-c1nnc(C)o1)[C@@H](C)CNc1cnc(C(F)(F)F)cn1 [Example 23]
< 3	CCN(C(=O)c1ccccc1-c1noc(C)n1)[C@@H](C)CNc1ncc(C(F)(F)F)cn1 [Example 14]
< 3	CCN(C(=O)c1cncnc1-c1ccccc1)[C@@H](C)CNc1ncc(C(F)(F)F)cn1 [Example 20]
< 3	CCN(C(=O)c1ncccc1-c1ccccc1)[C@@H](C)CNc1ncc(C(F)(F)F)cn1 [Example 19]
< 3	CCN(C(=O)c1cc(F)ccc1-c1ncccn1)[C@@H](C)CNc1ncc(C(F)(F)F)cn1 [Example 15]
< 3	CCN(C(=O)c1ccc(F)cc1-c1ncccn1)[C@@H](C)CNc1ncc(C(F)(F)F)cn1 [Example 16]

More lines, now with the values behind:

Structure (SMILES)	efflux ratio
CCN(C(=O)c1cc(C#N)ccc1-n1nccn1)[C@@H](C)CNc1ncc(C(F)(F)F)cn1 [Example 8]	3 to 5
CCN(C(=O)c1ccc(F)c(F)c1-n1nccn1)[C@@H](C)CNc1ncc(C(F)(F)F)cn1 [Example 4]	< 3
CCN(C(=O)c1ccc(F)cc1-n1nccn1)[C@@H](C)CNc1ncc(C(F)(F)F)cn1 [Example 2]	< 3
CCN(C(=O)c1c(F)cccc1-c1ncccn1)[C@@H](C)CNc1ncc(C(F)(F)F)cn1 [Example 13]	< 3
CCN(C(=O)c1cc(F)cnc1-n1nccn1)[C@@H](C)CNc1ncc(C(F)(F)F)cn1 [Example 10]	< 3
